Data from PubChem BioAssay (NCI).
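All cell lines were grown in 96-well plates and treated with compound for 48 hours. At the GI50, growth is halved. TGI is the concentration that stops growth completely.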

Columns and labels:
Assay in all cases: inhibition of tumour cell growth, NCI panel, 48 h
CCRF-CEM leukemia = tested on: CCRF-CEM leukemia
HCC-2998 colon = tested on: HCC-2998 colon
HCT-15 colon = tested on: HCT-15 colon
HT29 colon = tested on: HT29 colon
IGROV1 ovarian = tested on: IGROV1 ovarian
K-562 leukemia = tested on: K-562 leukemia
LOX IMVI melanoma = tested on: LOX IMVI melanoma
NCI-H226 lung = tested on: NCI-H226 lung
SK-OV-3 ovarian = tested on: SK-OV-3 ovarian
SW-620 colon = tested on: SW-620 colon

Row | SMILES | TGI (CCRF-CEM leukemia) | TGI (HCC-2998 colon) | TGI (HCT-15 colon) | TGI (HT29 colon) | TGI (IGROV1 ovarian) | TGI (K-562 leukemia) | TGI (LOX IMVI melanoma) | TGI (NCI-H226 lung) | TGI (SK-OV-3 ovarian) | TGI (SW-620 colon) | GI50 (CCRF-CEM leukemia) | GI50 (HCC-2998 colon) | GI50 (HCT-15 colon) | GI50 (HT29 colon) | GI50 (IGROV1 ovarian) | GI50 (K-562 leukemia) | GI50 (LOX IMVI melanoma) | GI50 (NCI-H226 lung) | GI50 (SK-OV-3 ovarian) | GI50 (SW-620 colon)
1 | O=C(CC(=O)n1nc(-c2ccccc2)c(N=Nc2ccc(Cl)cc2)c1-c1ccccc1)Nc1ccc(Cl)cc1 | > 62.8 µM | > 100 µM | > 55.8 µM | > 59.7 µM | > 100 µM | > 66.2 µM | > 56.9 µM | > 100 µM | > 100 µM | > 62.6 µM |  |  |  |  |  |  |  |  |  | 
2 | [N-]=[N+]=C1C(=O)NN=C1c1ccccc1 | > 100 µM | > 100 µM | > 100 µM | > 100 µM | > 100 µM | > 100 µM | > 100 µM | > 100 µM | > 100 µM | > 100 µM |  |  |  |  |  |  |  |  |  | 
3 | COc1ccc(C(=O)c2cc(C)c(OC)c(C)c2)cc1OC(=O)CCl | > 100 µM | > 79.2 µM | > 100 µM | 14.8 µM | > 100 µM | > 100 µM | > 100 µM | > 100 µM | > 100 µM | > 100 µM | < 0.01 µM | 0.0391 µM | < 0.01 µM | 1.06 µM | 0.0352 µM | < 0.01 µM | < 0.01 µM | 4.27 µM | < 0.0238 µM | < 0.01 µM
4 | NC(=O)c1cc(Cl)ccc1NC(=O)/C=C/c1ccccc1 | > 100 µM | 2.79 µM | > 100 µM | > 100 µM | > 100 µM | > 23.1 µM | > 100 µM | > 100 µM | > 35.5 µM | > 100 µM | 2.96 µM | 0.487 µM | 2.38 µM | 2.22 µM | 3.03 µM | 0.806 µM | 4.33 µM | 6.42 µM | 4.3 µM | 2.36 µM
5 | CCOC(=O)/C(C)=C(/O)C(=O)OCC | > 100 µM | > 100 µM | > 100 µM | > 100 µM | > 100 µM | > 100 µM | > 100 µM | > 100 µM | > 100 µM | > 100 µM |  |  |  |  |  |  |  |  |  | 
6 | CCc1nc(N)nc(N)c1-c1ccc(NC)c([N+](=O)[O-])c1 | > 41.8 µM | 65.7 µM | > 100 µM | 33.7 µM | > 100 µM | > 25.8 µM | > 100 µM | > 100 µM | > 100 µM | > 100 µM |  |  |  |  |  |  |  |  |  | 
7 | Cn1cc(C2(C)CC(C)(C)c3c2n(C)c2ccccc32)c2ccccc21 (stereo not given) | > 100 µM | > 100 µM | > 100 µM | > 100 µM | > 100 µM | > 100 µM | > 100 µM | > 100 µM | > 100 µM | > 100 µM |  |  |  |  |  |  |  |  |  | 
8 | Cc1cc(C)c(NC(=O)c2sc3nc4c(cc3c2N)C(=O)CCC4)c(C)c1 | > 100 µM | > 78.2 µM | > 100 µM | 11.1 µM | > 100 µM | > 100 µM | > 100 µM | > 100 µM | > 100 µM | > 100 µM | 3.15 µM | 3.07 µM | 2.59 µM | 3.09 µM | 5.58 µM | 1.9 µM | 5.39 µM | 5.81 µM | 2.07 µM | 2.87 µM
9 | O=S(=O)(c1ccc(NC(=S)NC23CC4CC(CC(C4)C2)C3)cc1)N1CCCCC1 | > 100 µM | 19.9 µM | > 100 µM | 5.84 µM | > 100 µM | > 100 µM | > 100 µM | > 100 µM | 9.26 µM | > 100 µM | 3.13 µM | 3.29 µM | 3.22 µM | 2.49 µM | 4.63 µM | 3.6 µM | 3.71 µM | 4.05 µM | 2.98 µM | 3.82 µM
10 | Nc1nc(Nc2cccnc2)sc1C(=O)c1ccccc1F | > 21.9 µM | 0.972 µM | > 87.8 µM | 31.2 µM | > 29.1 µM | > 65.4 µM | > 100 µM | 31.4 µM | > 100 µM | > 42.6 µM | 2.19 µM | 0.309 µM | 2.82 µM | 2.96 µM | 2.17 µM | 6.69 µM | 2.26 µM | 2.67 µM | 15.7 µM | 3.5 µM
11 | O=C(CCc1nc(=S)[nH][nH]1)Nc1ccccc1Cl | > 100 µM | > 100 µM | 41.3 µM | > 100 µM | > 100 µM | > 100 µM | > 100 µM | > 100 µM | > 100 µM | 35.6 µM |  |  |  |  |  |  |  |  |  | 
